Measurements reported in publication PMC7216583 (Parasites & Vectors, 2020).
Where a name gives a salt, the structure may show the parent alone. Read-outs that look alike come from different tables or passages of the source.

Assays:
in vitro = conditions: human; for viability at 72 h, 5 µM: Host viability (%) Mean ± SD
Aurora B = system: Aurora B; design: method as in S-inhibitor catalog; conditions: vendor brief description; ref S-inhibitor catalog; cited from earlier work
[1] = system: Toxoplasma gondii RH-2F tachyzoites; assay: microbe, parasite or virus in culture; conditions: 72 h; for inhibition at 5 µM: read-out: Parasite inhibition (%) Mean ± SD
mTOR [2] = system: mTOR; design: method as in library vendor description; conditions: ref library vendor description; cited from earlier work
[3] = system: Toxoplasma gondii RH-2F tachyzoites; conditions: for effect on T. gondii growth in the screen: 5 μM, 72 h
[4] = system: human foreskin fibroblasts (HFFs); conditions: preliminary screen of compound library; mean
HSP90 = conditions: ref library vendor description, cited from earlier work
[5] = system: chymotrypsin-like proteolytic (β5) site of the 20S proteasome; design: method as in S-inhibitor; conditions: ref S-inhibitor; cited from earlier work
JAK2 = system: JAK2; design: method as in S-inhibitor catalog; conditions: vendor brief description; ref S-inhibitor catalog; cited from earlier work
mTOR [6] = system: mTOR; design: method as in S-inhibitor catalog; conditions: vendor brief description; ref S-inhibitor catalog; cited from earlier work
VEGFR2 = system: VEGFR2; design: method as in library vendor description; conditions: ref library vendor description; cited from earlier work
VEGFR3 = system: VEGFR3; design: method as in library vendor description; conditions: ref library vendor description; cited from earlier work
c-Kit = system: c-Kit; design: method as in library vendor description; conditions: ref library vendor description; cited from earlier work
VEGFR1 = system: VEGFR1; design: method as in library vendor description; conditions: ref library vendor description; cited from earlier work
Ret = system: Ret; design: method as in library vendor description; conditions: ref library vendor description; cited from earlier work
VEGFR-2 = system: VEGFR-2; design: method as in vendor brief description; conditions: ref vendor brief description; cited from earlier work
PDGFRβ = system: PDGFRβ; design: method as in S-inhibitor; conditions: ref S-inhibitor; cited from earlier work
PDK-1 = system: PDK-1; design: method as in library vendor description; conditions: ref library vendor description, cited from earlier work
Flt4 = system: Flt4; design: method as in library vendor description; conditions: ref library vendor description; cited from earlier work
[7] = read-out: Parasite inhibition (%) mean, preliminary screen of compound library, mean
[8] = read-out: Parasite inhibition (%) mean, preliminary screen, mean
[9] = preliminary screen of compound library, mean

CCS(=O)(=O)c1cccc(-c2cc(C(=O)NC3CCN(C)CC3)c(C)c3[nH]c4ncc(C)cc4c23)c1 [TAK-901]
viability at 72 h (in vitro; Host viability (%) mean): 52.7% | IC50 (Aurora B): 15 nM | inhibition of growth at 5 µM [1, 7]: 77.8%

CO[C@H]1C[C@H]2CC[C@@H](C)[C@@](O)(O2)C(=O)C(=O)N2CCCC[C@H]2C(=O)O[C@H]([C@H](C)C[C@@H]2CC[C@H](OP(C)(C)=O)[C@H](OC)C2)CC(=O)[C@H](C)/C=C(\C)[C@@H](O)[C@@H](OC)C(=O)[C@H](C)C[C@H](C)/C=C/C=C/C=C/1C [Deforolimus (Ridaforolimus)]
IC50 (mTOR [2]): 0.2 nM | inhibition of growth at 5 µM [1, 8]: 36.8%

COC(=O)Nc1ccc(-c2nc(N3CCOCC3)c3cnn(C4CCN(C(=O)OC)CC4)c3n2)cc1 [WYE-354]
IC50 (mTOR [2]): 5 nM | inhibition of growth at 5 µM [1, 8]: 43.5%

AT101
Parasite inhibition (%) mean [3]: 70.4% | Host viability (%) mean [4]: 68.8%

CO[C@H]1/C=C\C=C(\C)C(=O)NC2=CC(=O)C(NCCN(C)C)=C(C[C@@H](C)C[C@H](OC)[C@H](O)[C@@H](C)/C=C(\C)[C@@H]1OC(N)=O)C2=O [17-DMAG HCl (Alvespimycin)]
IC50 (HSP90; read-out: IC50 HSP90): 62 nM | inhibition of growth at 5 µM [1, 8]: 4.3%

COc1cc(Nc2ncc(F)c(Nc3ccc4c(n3)N(COP(=O)(O)O)C(=O)C(C)(C)O4)n2)cc(OC)c1OC [R935788]
Parasite inhibition (%) mean ([3]; preliminary screen, mean): 28.5%

CN[C@H](CC(C)C)C(=O)N[C@H]1C(=O)N[C@@H](CC(N)=O)C(=O)N[C@H]2C(=O)N[C@H]3C(=O)N[C@@H](C(=O)N[C@H](C(=O)O)c4cc(O)cc(O)c4-c4cc3ccc4O)[C@H](O)c3ccc(c(Cl)c3)Oc3cc2cc(c3O[C@H]2O[C@H](CO)[C@@H](O)[C@H](O)[C@H]2O[C@H]2C[C@@](C)(N)[C@H](O)[C@H](C)O2)Oc2ccc(cc2Cl)[C@H]1O.Cl [Vancomycin HCl (Vancocin)]
Parasite inhibition (%) mean [3]: 0.8%

N[C@@H]1CN(c2c(F)cc3c(=O)c(C(=O)O)cn([C@@H]4C[C@@H]4F)c3c2Cl)CC12CC2.O [Sitafloxacin hydrate]
Parasite inhibition (%) mean [3, 9]: 53.1%

MLN9708
Parasite inhibition (%) mean ([3]; preliminary screen, mean): 17.5% | IC50 [5]: 3.4 nM | Ki [5]: 0.93 nM

Cc1cc(Nc2nc(N[C@@H](C)c3ccc(F)cc3)c(C#N)cc2F)[nH]n1 [AZ 960]
IC50 (JAK2): < 3 nM | Ki (JAK2): 0.45 nM | inhibition of growth at 5 µM [1, 8]: -2.1%

COC(=O)Nc1ccc(-c2nc(N3CCOCC3)c3cnn(C4CCN(Cc5cccnc5)CC4)c3n2)cc1 [WYE-687]
IC50 (mTOR [6]): 7 nM | inhibition of growth at 5 µM [1, 7]: 28.7%

COc1cc2nccc(Oc3ccc(NC(=O)NC4CC4)c(Cl)c3)c2cc1C(N)=O [E7080 (Lenvatinib)]
viability at 72 h (in vitro; Host viability (%) mean): 52.1% | IC50 (VEGFR2): 4 nM | IC50 (VEGFR3): 5.2 nM | inhibition of growth at 5 µM [1, 8]: 84.1%

c1cncc(CN2CCC(n3ncc4c(N5CCOCC5)nc(-c5ccc6[nH]ccc6c5)nc43)CC2)c1 [WAY-600]
IC50 (mTOR [6]): 9 nM | inhibition of growth at 5 µM [1, 7]: 35.5%

CNC(=O)c1cc(Oc2ccc(NC(=O)Nc3ccc(Cl)c(C(F)(F)F)c3)c(F)c2)ccn1 [Regorafenib (BAY 73-4506)]
viability at 72 h (in vitro; Host viability (%) mean): 68.2% | IC50 (c-Kit): 7 nM | IC50 (VEGFR1): […] | IC50 (Ret): 1.5 nM | inhibition of growth at 5 µM [1, 8]: 76.7%

[I-].[K+] [Potassium iodide]
Parasite inhibition (%) mean [3, 9]: 10.2%

Cc1c(CN2CCN(C(=O)[C@H](C)O)CC2)sc2c(N3CCOCC3)nc(-c3cnc(N)nc3)nc12 [GDC-0980 (RG7422)]
Ki (mTOR [6]): 17 nM | inhibition of growth at 5 µM [1, 7]: 33.7%

CC(O)C(=O)O.CC(O)C(=O)O.CN1CCN(c2ccc3nc(-c4c(N)c5c(F)cccc5[nH]c4=O)[nH]c3c2)CC1 [Dovitinib Dilactic acid]
Parasite inhibition (%) mean [3, 9]: 18.2%

Biapenem
Parasite inhibition (%) mean [3, 9]: 5.8%

Cc1cc(C)c(/C=C2\C(=O)Nc3ccccc32)[nH]1 [semaxanib, reference compound]
effect on T. gondii growth in the screen [3]: no effect on T. gondii growth

CN1CCN(C2CCN(C(=O)Nc3cc(Oc4ccc(NC(=O)C5(C(=O)Nc6ccc(F)cc6)CC5)c(F)c4)ccn3)CC2)CC1 [Golvatinib (E7050)]
viability at 72 h (in vitro; Host viability (%) mean): 78.3% | IC50 (VEGFR-2): 16 nM | inhibition of growth at 5 µM [1, 7]: 76.8%

Cc1cc(F)c(Nc2ncnc3cc(OCc4ccccc4)ccc23)cc1O [ZM 323881 HCl, reference compound]
viability at 72 h, 5 µM (in vitro): 85.5 ± 5.4% | viability at 72 h (in vitro; Host viability (%) mean): 85.5% | IC50 (VEGFR-2): < 2 nM | inhibition at 5 µM [1]: 79.9 ± 1.4%

COCCOc1ccc2c(c1)ncn2-c1ccc2cccc(N3CCC(N)CC3)c2n1 [CP 673451]
IC50 (PDGFRβ): 1 nM | inhibition of growth at 5 µM [1, 8]: -13.8%

O=C(Nc1cccc(Nc2ncc(Br)c(NCCc3cnc[nH]3)n2)c1)N1CCCC1 [BX-912]
IC50 (PDK-1; read-out: IC50 PDK-1): 12 nM | inhibition of growth at 5 µM [1, 8]: 1.4%

Cl.NC(=O)c1cnc(N[C@@H]2CCCC[C@@H]2N)nc1Nc1cccc(-n2nccn2)c1 [PRT062607 HCl]
Parasite inhibition (%) mean [3, 9]: 17.8%

COC(=O)N[C@H](C(=O)N[C@@H](Cc1ccccc1)[C@@H](O)CN(Cc1ccc(-c2ccccn2)cc1)NC(=O)[C@@H](NC(=O)OC)C(C)(C)C)C(C)(C)C [Atazanavir, reference compound]
effect on T. gondii growth in the screen [3]: significantly inhibited T. gondii growth | viability at 72 h, 5 µM (in vitro): 90.7 ± 2.8% | inhibition at 5 µM [1]: 93.6 ± 2.1%

CN1CCN(c2cccc(Nc3nc4c(-c5ccc(S(C)(=O)=O)cc5)cccn4n3)c2)CC1 [CEP33779]
IC50 (JAK2): 1.8 nM | inhibition of growth at 5 µM [1, 7]: 7.8%

CNC(=O)Nc1ccc(-c2nc(N3CC4CCC(C3)O4)c3cnn(C4CCC5(CC4)OCCO5)c3n2)cc1 [WYE-125132]
IC50 (mTOR [6]): 0.19 nM | inhibition of growth at 5 µM [1, 7]: 44.4%

N#CC(=C(/N)Sc1ccccc1N)/C(C#N)=C(/N)Sc1ccccc1N [U0126, reference compound]
effect on T. gondii growth in the screen [3]: no effect on T. gondii growth

COc1c(C)cnc(Cn2cnc3c(Cl)nc(N)nc32)c1C [BIIB021]
EC50 (HSP90; read-out: EC50 HSP90): […] | Ki (HSP90; read-out: Ki HSP90): […] | inhibition of growth at 5 µM [1, 8]: 3.5%

NCC(=O)Nc1ccc(-n2nc(C(F)(F)F)cc2-c2ccc3c(ccc4ccccc43)c2)cc1 [OSU-03012 (AR-12)]
IC50 (PDK-1; recombinant PDK-1, read-out: IC50 recombinant PDK-1): 5000 nM | inhibition of growth at 5 µM [1, 8]: 5.4%

CC(C)Cc1ccc(C(C)C(=O)O)cc1.NCCCC[C@H](N)C(=O)O (centres unmarked) [Ibuprofen Lysine (NeoProfen)]
Parasite inhibition (%) mean ([3]; preliminary screen, mean): -1.6%

CS(=O)(=O)N1CCc2c(-c3cnc(N)nc3)nc(N3CCOCC3)nc21 [CH5132799]
IC50 (mTOR [6]): 1600 nM | inhibition of growth at 5 µM [1, 7]: 48.9%

Cc1cc(Nc2cc(N3CCN(C)CC3)nc(/C=C/c3ccccc3)n2)n[nH]1 [ENMD-2076]
viability at 72 h (in vitro; Host viability (%) mean): 66.6% | IC50 (Flt4): 15.9 nM | inhibition of growth at 5 µM [1, 8]: 74.7%

Cc1[nH]c(/C=C2\C(=O)Nc3ccc(S(=O)(=O)Cc4c(Cl)cccc4Cl)cc32)c(C)c1C(=O)N1CCC[C@@H]1CN1CCCC1 [PHA-665752, reference compound]
effect on T. gondii growth in the screen [3]: significantly inhibited T. gondii growth | viability at 72 h, 5 µM (in vitro): 80.5 ± 1.3% | viability at 72 h (in vitro; Host viability (%) mean): 80.5% | inhibition at 5 µM [1]: 92.3 ± 3.1%

Cl.N=C(N)N [Guanidine HCl]
Parasite inhibition (%) mean [3, 9]: -3.4%

CO[C@H]1C[C@H]2CC[C@@H](C)[C@@](O)(O2)C(=O)C(=O)N2CCCC[C@H]2C(=O)O[C@H]([C@H](C)C[C@@H]2CC[C@H](OC(=O)C(C)(CO)CO)[C@H](OC)C2)CC(=O)[C@H](C)/C=C(\C)[C@@H](O)[C@@H](OC)C(=O)[C@H](C)C[C@H](C)/C=C/C=C/C=C/1C [Temsirolimus (Torisel)]
IC50 (mTOR [2]): 1760 nM | inhibition of growth at 5 µM [1, 8]: 22.4%

O=C1CCC[C@@H]2[C@@H]3CCCN4CCC[C@H](CN12)[C@@H]34 [Matrine ((+)-Matrine)]
viability at 72 h (in vitro; uninfected human foreskin fibroblasts (HFFs)): 19.6% | inhibition of growth at 5 µM [1, 7]: 78.7%

CC(C)C[C@@H](C(=O)N[C@H](C(=O)OC1CCCC1)c1ccccc1)[C@H](O)C(=O)NO [CHR2797, reference compound]
viability at 72 h, 5 µM (in vitro): 88.8 ± 6.7% | inhibition at 5 µM [1]: 85.6 ± 1.8%

Ulipristal
Parasite inhibition (%) mean [3, 9]: -0.7%

CC(C)C[C@H](NC(=O)CNC(=O)c1cc(Cl)ccc1Cl)B(O)O [MLN2238]
IC50 [5]: 3.4 nM | Ki [5]: 0.93 nM | inhibition of growth at 5 µM [1, 8]: 13.3%

CN(C)c1ccc(-c2nc3c(N4CCN(CC(=O)Nc5nccs5)CC4)c(Cl)cnc3[nH]2)cc1 [CCT129202]
viability at 72 h (in vitro; Host viability (%) mean): 42.6% | inhibition of growth at 5 µM [1, 8]: 85.6%

O=S(=O)(F)Cc1ccccc1 [PMSF (Phenylmethylsulfonyl Fluoride)]
Parasite inhibition (%) mean [3, 9]: 0.8%

CNC(=O)CN(CCN(CCN(CC(=O)[O-])CC(=O)NC)CC(=O)[O-])CC(=O)[O-].O.[Gd+3] [Gadodiamide (Omniscan)]
Parasite inhibition (%) mean [3, 9]: -0.2%
